In article PMC5327470, “Discovery and Optimization of Novel 5-Indolyl-7-arylimidazo[1,2-a]pyridine-8-carbonitrile Derivatives as Potent Antitubulin Agents Targeting Colchicine-binding Site” (Scientific Reports, 2017):

Key:
H460 (human lung cancer) = assay: MTT antiproliferative assay, H460; assay type: cell-based; details: for IC50: MTT, 72 h, mean ± SD
Description: (§1) To evaluate the antiproliferative activity, all synthesized derivatives (5a–5v and 7a–7h) were investigated for their activity in vitro against a panel of cancer cell lines including HT-29 (human colon cancer), H460 (human lung cancer), A549 (human lung carcinoma), MKN-45 (human gastric cancer) and SMMC-7721 (human liver cancer) by MTT assay. CA-4 and Crolibulin were served as positive control, and the results expressed as half-maximal inhibitory concentration (IC50). IC50 values are the concentrations that cause 50% inhibition of cancer cell growth (μM). Data represent the mean values ± standard deviation (SD) of independent experiments performed in triplicate.
(§2) The antiproliferative activities in vitro of Crolibulin and all the target compounds were determined by an MTT assay. Briefly, cells were seeded into 96-well plates at a density of 1–3 × 10^4/well (depends on the cell growth rate). 24 h later, triplicate wells were treated with media and the agents. After 72 h ofincubation at 37 °C in 5% CO2, the drug containing medium wasremoved and replaced by 100 mL of fresh medium with 5 mg/mLMTT solution. After 4 h of incubation, the medium with MTT was removed, and […] of DMSO was added to each well. The plates were gently agitated until the purple formazan crystals were dissolved, and the OD490 was determinedusing a microplate reader (MK3, Thermo, Germany). The data were calculated and plotted as the percent viability compared to the control. The 50% inhibitory concentration (IC50) was defined as theconcentration that reduced the absorbance of the untreated wells by 50% of the vehicle in the MTT assay.

[1] = system: A549 (human lung carcinoma); assay: MTT antiproliferative assay, A549; assay type: cell-based; details: 72 h, mean ± SD
Description: as §1
(§3) Cell lines and culture conditions.The human colon carcinoma cell line HT-29, the human pulmonary carcinoma cell line A549, the human gastric carcinoma cell line MKN-45, the human breast cancer cell line MDA-MB-231 and human heptocarcinoma cellline SMMC-7721were cultured in RPMI-1640 mediumcontaining 10% FBS, 100 U/mL streptomycin and 100 U/mL penicillinat 37 °C in humidified atmosphere with 5% CO2. All of the cells were purchased from the American Type Culture Collection (ATCC, Manassas, VA).
as §2

[2] = system: HT-29 (human colon cancer); assay: MTT antiproliferative assay, HT-29; assay type: cell-based; details: for IC50: Homo sapiens, HT-29, MTT, 72 h, mean ± SD, read-out: IC50 (μM) ±SD HT29
Description: as §1, §3, §2

[3] = system: MKN-45 (human gastric cancer); assay: MTT antiproliferative assay, MKN-45; assay type: cell-based; details: 72 h, mean ± SD, read-out: IC50 (μM) ±SD MKN45
Description: as §1, §3, §2

[4] = system: SMMC-7721 (human liver cancer); assay: MTT antiproliferative assay, SMMC-7721; assay type: cell-based; details: 72 h, mean ± SD
Description: Data represent the mean values ± standard deviation (SD) of independent experiments performed in triplicate.
All of the cells were purchased from the American Type Culture Collection (ATCC, Manassas, VA).
as §2, with “After 72 h ofincubation at 37 °C in 5% CO2, the drug containing medium wasremoved and replaced by 100 mL of fresh medium with 5 mg/mLMTT solution.” left out, “control.” for “control. The 50% inhibitory concentration (IC50) was defined as theconcentration that reduced the absorbance of the untreated wells by 50% of the vehicle in the MTT assay.”

| Compound | IC50 (H460 (human lung cancer); Homo sapiens, NCI-H460, 72 h) [µM] | melting point [°C] | IC50 [1] [µM] | IC50 [2] [µM] | IC50 [3] [µM] | IC50 [4] [µM] | IC50 (H460 (human lung cancer)) [µM] | fold more potent than 5a on HT-29 cell ([2]; ratio of IC50 values) | fold more active in H460 than 5h (H460 (human lung cancer); ratio of IC50 values) | IC50 (H460 (human lung cancer); Homo sapiens, NCI-H460) [µM] |
| --- | --- | --- | --- | --- | --- | --- | --- | --- | --- | --- |
| N#Cc1c(-c2ccccc2)cc(-c2c[nH]c3ccccc23)n2ccnc12 [5a, 5-(1H-indol-3-yl)-7-phenylimidazo[1,2-a]pyridine-8-carbonitrile] | 2.79 ± 0.52 | 338.3 to 339.7 | 86.4 ± 7.33 | 0.3 ± 0.04 | 79.7 ± 8.1 | 89.4 ± 2.6 |  |  |  |  |
| COc1cccc(-c2cc(-c3c[nH]c4ccccc34)n3ccnc3c2C#N)c1 [5c, 5-(1H-indol-3-yl)-7-(3-methoxyphenyl)imidazo[1,2-a]pyridine-8-carbonitrile] | 17.5 ± 1.53 | 316.5 to 318.7 | 12.2 ± 1.89 | 0.24 ± 0.01 | 1.24 ± 0.08 | 76.2 ± 8.98 |  |  |  |  |
| COc1ccc(-c2cc(-c3c[nH]c4ccccc34)n3ccnc3c2C#N)cc1 [5d, 5-(1H-indol-3-yl)-7-(4-methoxyphenyl)imidazo[1,2-a]pyridine-8-carbonitrile] | 9.61 ± 0.76 | 294.7 to 295.5 | 15.5 ± 2.13 | 0.43 ± 0.03 | 1.64 ± 0.07 | 71.5 ± 9.43 |  |  |  |  |
| N#Cc1c(-c2cccc(Br)c2)cc(-c2c[nH]c3ccccc23)n2ccnc12 [5g, 7-(3-bromophenyl)-5-(1H-indol-3-yl)imidazo[1,2-a]pyridine-8-carbonitrile] | 6.89 ± 0.67 | 321.9 to 324.4 | > 100 | > 100 | 64 ± 7.14 | 79.2 ± 6.87 |  |  |  |  |
| N#Cc1c(-c2ccc(Br)cc2)cc(-c2c[nH]c3ccccc23)n2ccnc12 [5h, 7-(4-bromophenyl)-5-(1H-indol-3-yl)imidazo[1,2-a]pyridine-8-carbonitrile] | 1.16 | 307.8 to 309.5 | 8.54 ± 0.93 | 0.12 ± 0.02 | 2.76 ± 0.47 | 53.5 ± 7.76 | 0.95 ± 0.03 | about 2.5 fold |  |  |
| N#Cc1c(-c2ccc(F)cc2F)cc(-c2c[nH]c3ccccc23)n2ccnc12 [5i, 7-(2,4-difluorophenyl)-5-(1H-indol-3-yl)imidazo[1,2-a]pyridine-8-carbonitrile] | 0.04 ± 0.001 | 340.3 to 346.2 | 0.12 ± 0.03 | 0.08 ± 0.001 | 0.03 ± 0.006 | 13.6 ± 2.38 |  |  | about 29 fold |  |
| N#Cc1c(-c2ccc(F)c(F)c2)cc(-c2c[nH]c3ccccc23)n2ccnc12 [5j, 7-(3,4-difluorophenyl)-5-(1H-indol-3-yl)imidazo[1,2-a]pyridine-8-carbonitrile] | 0.076 ± 0.01 | 341.6 to 343.8 |  | 0.03 ± 0.009 | 1.43 ± 0.12 | 18.5 ± 2.76 |  |  |  |  |
| N#Cc1c(-c2ccc(O)c(Br)c2)cc(-c2c[nH]c3ccccc23)n2ccnc12 [5l, 7-(3-bromo-4-hydroxyphenyl)-5-(1H-indol-3-yl)imidazo[1,2-a]pyridine-8-carbonitrile] | 1.07 ± 0.12 | 309.2 to 312.3 | > 100 | 0.92 ± 0.08 | 10.7 ± 1.85 | 80.2 ± 7.54 |  |  |  |  |
| N#Cc1c(-c2cc(Br)c(O)c(Br)c2)cc(-c2c[nH]c3ccccc23)n2ccnc12 [5m, 7-(3,5-dibromo-4-hydroxyphenyl)-5-(1H-indol-3-yl)imidazo[1,2-a]pyridine-8-carbonitrile] | 1.15 ± 0.13 | 290.5 to 294.2 | 2.45 ± 0.37 | 2.13 ± 0.12 | 18.3 ± 2.13 | 20.5 ± 3.53 |  |  |  |  |
| COc1cc(-c2cc(-c3c[nH]c4ccccc34)n3ccnc3c2C#N)c(Br)cc1O [5n, 7-(2-bromo-4-hydroxy-5-methoxyphenyl)-5-(1H-indol-3-yl)imidazo[1,2-a]pyridine-8-carbonitrile] | 9.61 ± 0.74 | 327.7 to 330 | 80.2 ± 9.68 | 1.16 ± 0.13 | 14.5 ± 2.43 | 97.2 ± 6.54 |  |  |  |  |
| N#Cc1c(-c2ccc(O)c(O)c2O)cc(-c2c[nH]c3ccccc23)n2ccnc12 [5p, 5-(1H-indol-3-yl)-7-(2,3,4-trihydroxyphenyl)imidazo[1,2-a]pyridine-8-carbonitrile] | 0.25 ± 0.031 | 297.8 to 301.4 | 1.18 ± 0.21 | 1.48 ± 0.27 | 9.67 ± 0.73 | 10.4 ± 1.64 |  |  |  |  |
| COc1cc(OC)c(OC)c(-c2cc(-c3c[nH]c4ccccc34)n3ccnc3c2C#N)c1 [5q, 5-(1H-indol-3-yl)-7-(2,3,5-trimethoxyphenyl)imidazo[1,2-a]pyridine-8-carbonitrile] |  | 302.7 to 304.8 | 1.75 ± 0.13 | 0.46 ± 0.03 | 1.74 ± 0.15 | 27.4 ± 2.32 |  |  |  |  |
| N#Cc1c(-c2ccccc2)cc(-c2c[nH]c3ccc(Br)cc23)n2ccnc12 [5r, 5-(5-bromo-1H-indol-3-yl)-7-phenylimidazo[1,2-a]pyridine-8-carbonitrile] | 11.4 ± 1.68 | 337.9 to 342.4 | 67.3 ± 7.43 | 1.74 ± 0.14 | 7.38 ± 0.63 | > 100 |  |  |  |  |
| N#Cc1c(-c2ccccc2F)cc(-c2c[nH]c3ccc(Br)cc23)n2ccnc12 [5s, 5-(5-bromo-1H-indol-3-yl)-7-(2-fluorophenyl)imidazo[1,2-a]pyridine-8-carbonitrile] | 17.2 ± 1.34 | 301.7 to 304.6 | 67.3 ± 4.59 | 2.86 ± 0.38 | 31.2 ± 5.79 | > 100 |  |  |  |  |
| N#Cc1c(-c2ccccc2Cl)cc(-c2c[nH]c3ccc(Br)cc23)n2ccnc12 [5t, 5-(5-bromo-1H-indol-3-yl)-7-(2-chlorophenyl)imidazo[1,2-a]pyridine-8-carbonitrile] | 80.7 ± 6.98 | 302.2 to 306.8 | > 100 | 0.58 ± 0.06 | 56.8 ± 4.29 | > 100 |  |  |  |  |
| COc1cc([C@H]2C(C#N)=C(N)Oc3c2ccc(N)c3N)cc(Br)c1OC [Crolibulin, reference compound] |  |  |  | 0.52 ± 0.02 | 0.17 ± 0.03 |  |  |  |  | 0.03 ± 0.007 |
